{"source": "patent US20250129016A1", "about": "“[…] FOR RADI[…] ARENES AND USE THEREOF” (THE UNIVERSITY OF NORTH CAROLINA AT CHAPEL HILL, priority 2023, published 2025)", "origin": "cited, not measured here", "conditions": "previously reported"}
{"smiles": "COc1cc2c(c(OC)c1OC)-c1ccc(OC)c(=O)cc1[C@@H](NC(C)=O)CC2", "note": "[39a, Colchicine]", "values": [{"measurement": "route of excretion", "result": "excreted primarily through the biliary system, intestines, and kidneys"}]}
